Results published in US4331661A, “Bombesin analogs” (The Salk Institute for Biological Studies, priority 1980, dated 1982).
Non-standard residues stand in square brackets, D forms with d. Residues, ends and D or L forms follow the SMILES beside them. d(pGlu) = O=C1CC[C@H](C(=O)O)N1

Tests used:
[1] = system: Male Sprague-Dawley-CD rats; experiment: Rise in plasma glucose after the 60 minute core temperature measurement; assay type: in vivo, rat; design: concentration or dose not given beside the values; settings: rise in plasma glucose relative to Bombesin (= 100), after intracisternal injection
Method: Male Sprague-Dawley-CD rats weighing 180-200 grams each were housed in temperature and humidity controlled quarters. The rats were fed a standard rat food ration and tap water ad libitum. After being anesthetized with ether, peptides were injected into the cisterna magna of the brain of each rat. The peptides were dissolved in artificial CSF or distilled water. Ten microliters of a peptide solution containing the specified amounts of the peptide were injected. Immediately following the injection, the animals were transferred to a cold room maintained at 4° C. Rectal temperatures were recorded with a thermo-probe at 60 minutes following injection. All experiments were carried out in a randomized block design. Following analyses of variance, differences between groups were determined by the multiple range test of Dunnet and Duncan using the computer program Exbiol.
Following the 60 minute measurement of core temperature, the rats were rapidly decapitated, blood was collected and plasma levels of glucose were determined using a Beckman glucose analyzer. The results in causing a rise in plasma glucose relative to Bombesin are set forth hereinafter in Table III.

[2] = system: Male Sprague-Dawley-CD rats; experiment: Thermoregulative properties: core (rectal) temperature of rats at 4° C. after intracisternal injection; assay type: in vivo, rat; settings: 60 minutes following injection, control 36.5°
Method: The thermoregulative properties of the peptides were determined as follows:

[3] = system: mammals; settings: compared with neurotensin and bombesin; cited from earlier work

| Molecule | POTENCY (Plasma Glucose) [1] | CORE TEMPERATURE ([2]; dosage 1 nanomole) [°C] | CORE TEMPERATURE ([2]; dosage 10 picomoles) [°C] | CORE TEMPERATURE ([2]; dosage 100 picomoles) [°C] | potency (analgesic and thermoregulative effects) [3] | CORE TEMPERATURE ([2]; dosage 7 nanomoles) [°C] | CORE TEMPERATURE ([2]; dosage 7 picomoles) [°C] | CORE TEMPERATURE ([2]; dosage 20 picomoles) [°C] | CORE TEMPERATURE ([2]; dosage 70 picomoles) [°C] |
| --- | --- | --- | --- | --- | --- | --- | --- | --- | --- |
| CSCC[C@H](NC(=O)[C@H](CC(C)C)NC(=O)[C@H](Cc1c[nH]cn1)NC(=O)[C@@H](C)NC(=O)[C@@H](NC(=O)[C@H](C)NC(=O)[C@H](Cc1c[nH]c2ccccc12)NC(=O)[C@H](C)NC(C)=O)C(C)C)C(N)=O [Peptide No. 2] (Ac-AWAV[dA]HLM-NH2) | 150 | 30.4 | 34.3 | 31.9 | – | – | – | – | – |
| CSCC[C@H](NC(=O)[C@H](CC(C)C)NC(=O)[C@H](Cc1c[nH]cn1)NC(=O)CNC(=O)[C@@H](NC(=O)[C@H](C)NC(=O)[C@H](Cc1c[nH]c2ccccc12)NC(=O)[C@H](Cc1c[nH]cn1)NC(C)=O)C(C)C)C(N)=O [Peptide No. 1] | 100 | 32.6 | 34.3 | 33.2 | – | – | – | – | – |
| CSCC[C@H](NC(=O)[C@H](CC(C)C)NC(=O)[C@H](Cc1c[nH]cn1)NC(=O)[C@@H](C)NC(=O)[C@@H](NC(=O)[C@H](C)NC(=O)[C@H](Cc1c[nH]c2ccccc12)NC(=O)[C@@H](CCC(N)=O)NC(C)=O)C(C)C)C(N)=O [Peptide No. 3] | 150 | – | 32.3 | 31.9 | – | – | – | – | – |
| [d(pGlu)]WAV[dA]HLM-NH2 | – | – | – | – | more potent than neurotensin, it is less potent than bombesin | – | – | – | – |
| CSCC[C@H](NC(=O)[C@H](CC(C)C)NC(=O)[C@H](Cc1cnc[nH]1)NC(=O)CNC(=O)[C@@H](NC(=O)[C@H](C)NC(=O)[C@H](Cc1c[nH]c2ccccc12)NC(=O)[C@H](CCC(N)=O)NC(=O)[C@H](CC(N)=O)NC(=O)CNC(=O)[C@H](CC(C)C)NC(=O)[C@H](CCCN=C(N)N)NC(=O)[C@H](CCC(N)=O)NC(=O)[C@@H]1CCC(=O)N1)C(C)C)C(N)=O [Bombesin] | 100 | – | – | – | – | 32.1 | 34.7 | 33.8 | 33 |
| CSCC[C@H](NC(=O)[C@H](CC(C)C)NC(=O)[C@H](Cc1c[nH]cn1)NC(=O)CNC(=O)[C@@H](NC(=O)[C@H](C)NC(=O)[C@H](Cc1c[nH]c2ccccc12)NC(=O)[C@H](C)NC(C)=O)C(C)C)C(N)=O [Peptide No. 4] | 40 | – | 35.1 | 33.2 | – | – | – | – | – |
